Source: publication PMC5090206, “Fluselenamyl: A Novel Benzoselenazole Derivative for PET Detection of Amyloid Plaques (Aβ) in Alzheimer’s Disease” (Scientific Reports, 2016)

What was measured:
Aβ plaques [1] = biological target: T1, Aβ plaques (Homo sapiens, UniProt P05067); test: MicroPET/CT imaging in APP/PS1 and WT mice; assay type: in vivo; details: for distribution volume ratio (DVR): cortical ROI, cerebellum reference, RefLogan
Description: To directly access the potential of [^18F]-9 to bind Aβ plaques in vivo, we performed microPET/CT imaging in age-matched APP^+/−/PS1^+/− mice (n = 3) compared their WT counterparts, 5 min-2 h post tail-vein injection. […] Time activity curves (TAC) also indicated higher retention of activity within transgenic mice brains compared with their WT counterparts (Fig. 10). Additionally, ROI (cortical regions) were also analyzed using linearized method with a reference region (cerebellum) via Reference Logan plot (RefLogan), and distribution volume ratios (DVR) were obtained. The analysis indicated a statistically significant DVR value of 1.18 for transgenic mice brain compared with that of 1.03 for WT brains. These smaller differences in DVR values of targeted regions in transgenic mice compared with that of WT counterparts could also be attributed to a lack of true negative reference region in aged PS1/APP mice[57]. […] The differences between these tracers in this rodent model could be attributed to ability of [^18F]-9 for targeting both diffuse and fibrillary plaques. To further evaluate, whether or not [^18F]-9 offers significant advantage over other approved tracers, the agent would need to be further investigated for its performance in other AD rodent models (APP23 and Tg2576).
Scientific Reports Version of August 4, 2016 approved guidelines. 15-month-old APP+/-/PS1+/- mice were imaged using intravital multiphoton microscopy to assess pharmacokinetic profiles of the 5. The thinned-skull cranial windows were prepared on the day prior to imaging, as previously described16-18. Briefly, mice were anesthetized under volatile isoflurane (2% induction, 1.5% maintenance), the scalp and periosteum were removed to expose the skull.
A speed drill and microsurgical blade (Surgistar) were used to thin the skull until the skull window ([…]
(§1) For imaging 5 labeled plaques, two-photon fluorescence was generated with 800 nm excitation, and fluorescent emission was detected in the range of 435-485nm. […]

Aβ plaques [2] = biological target: T1, Aβ plaques; test: Real time multiphoton imaging in APP+/−/PS1+/− mice; assay type: in vivo; details: 2 mg/kg intravenous
Description: For assessing viability of molecules as imaging probes in vivo[48], various imaging modalities, such as nuclear imaging (PET/SPECT), optical imaging, and MRI have been used to investigate simultaneously distribution kinetics and target-receptor specificity. While the resolution of PET and MRI allow in vivo imaging at relatively moderate resolution, the multiphoton microscopy enables evaluation of kinetics at a sub-micrometer resolution[49]. […] The generation of various transgenic (tg) animals overexpressing mutant human APP and/or PS1 and PS2, tg APP mice expressing ApoE isoforms including those for Tau offer attractive models for unravelling biochemical pathways prevalent in pathophysiology of AD[50]. […] Literature precedents indicate Aβ deposition by 2 months of age, with gradual quantitative increase at six months^55. […] Compared with barely detectable auto-fluorescence levels prior to imaging transgenic APP^+/−/PS1^+/− mice (Fig. 8, first panel), bright fluorescence appeared almost instantaneously following administration of 5. Fluorescence first appeared in large and small blood vessels within the brain. Within minutes (10 min), the brain parenchyma was uniformly bright in fluorescence, and Aβ deposits were labeled. […]
as §1

T1 sequence (P05067 672-711 limits assumed): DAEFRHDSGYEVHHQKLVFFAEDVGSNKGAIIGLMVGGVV

SMILES	higher retention in transgenic mice brains vs WT (Aβ plaques [1]; APP+/−/PS1+/− vs WT mice, n = 3, p < 0.05) [folds]	distribution volume ratio (DVR) (Aβ plaques [1]; WT brains)	distribution volume ratio (DVR) (Aβ plaques [1]; transgenic mice brain)	time at which labeling of parenchymal plaques peaked (Aβ plaques [2])
CN(C)c1ncc(/C=C\c2nc3cc(OCC[18F])ccc3[se]2)cn1 [[^18F]-9]	1.2	1.03	1.18	–
CN(C)c1ncc(/C=C\c2nc3cc(OCCF)ccc3[se]2)cn1 [compound 5, (Z)-5-(2-(5-(2-fluoroethoxy)benzo[d][1,3]selenazol-2-yl)vinyl)-N,N-dimethylpyrimidin-2-amine]	–	–	–	approximately 10 min
